Holding throughout (settings): stereoisomer not certain
Data set [1] is described as follows: RP, Merck Supelco Ascentis Express C18, 100 × 2.1 mm, 2 µm, 40 °C, 0.4 mL/min, estimated dead time 0.55 min; A: water + 0.1% formic acid, pH 3; B: acetonitrile + 0.1% formic acid, pH 3; gradient (min/%B) 0/5 2/5 17/99.9 20/99.9.
Data set [2] is described as follows: RP, Merck Supelco Ascentis Express C18, 100 × 2.1 mm, 2 µm, 40 °C, 0.2 mL/min, estimated dead time 1.1 min; A: water + 0.1% formic acid, pH 3; B: acetonitrile + 0.1% formic acid, pH 3; gradient (min/%B) 0/5 2/5 17/99.9 20/99.9.
A short description of data set [3]: RP, Merck Supelco Ascentis Express C18, 100 × 2.1 mm, 2 µm, 40 °C, 0.35 mL/min, estimated dead time 0.63 min; A: water + 0.1% formic acid, pH 3; B: acetonitrile + 0.1% formic acid, pH 3; gradient (min/%B) 0/5 2/5 17/99.9 20/99.9.
Data set [4] is described as follows: RP, Merck Supelco Ascentis Express C18, 100 × 2.1 mm, 2 µm, 40 °C, 0.4 mL/min, estimated dead time 0.55 min; A: water + 0.1% formic acid, pH 3; B: acetonitrile + 0.1% formic acid, pH 3; gradient (min/%B) 0/5 2/5 17/99.9 20/99.9. The source holds these as a separate data set.
Data set [5] can be described thus: RP, Merck Supelco Ascentis Express C18, 100 × 2.1 mm, 2 µm, 40 °C, 0.25 mL/min, estimated dead time 0.88 min; A: water + 0.1% formic acid, pH 3; B: acetonitrile + 0.1% formic acid, pH 3; gradient (min/%B) 0/5 2/5 17/99.9 20/99.9.
The nature of data set [6]: RP, Merck Supelco Ascentis Express C18, 100 × 2.1 mm, 2 µm, 39 °C, 0.3 mL/min, estimated dead time 0.73 min; A: water + 0.1% formic acid, pH 3; B: acetonitrile + 0.1% formic acid, pH 3; gradient (min/%B) 0/5 2/5 17/99.9 20/99.9.
The nature of data set [7]: RP, Merck Supelco Ascentis Express C18, 100 × 2.1 mm, 2 µm, 40 °C, 0.2 mL/min, estimated dead time 1.1 min; A: water + 0.1% formic acid, pH 3; B: acetonitrile + 0.1% formic acid, pH 3; gradient (min/%B) 0/5 2/5 17/99.9 20/99.9. The source holds these as a separate data set.

Turning to `CCCCCCCCCCCCCC(=O)OCC(O)CO` (stereo unspecified) [GLYCEROL-MYRISTATE], the LC retention time in data set [1] is 13.3 min; in data set [2], 15.4 min; in data set [3], 13.6 min; in data set [4], 13.2 min; in data set [5] it was 14.6 min; in data set [6] it was 14 min. In addition, in data set [7], the LC retention time was 15.3 min.
In the case of `CC(CCC(=O)NCC(=O)O)C1CCC2C3C(O)CC4CC(O)CCC4(C)C3CCC12C` (stereo unspecified) [GLYCOCHENODEOXYCHOLATE], the LC retention time is 9.09 min in data set [1]; 10.5 min in data set [2]; 9.28 min in data set [3]; 9.05 min in data set [4]; 9.94 min in data set [5]; 9.57 min in data set [6]. In data set [7], the LC retention time is 10.4 min.
`CC(CCC(=O)NCC(=O)O)C1CCC2C3C(O)CC4CC(O)CCC4(C)C3CC(O)C12C` (stereo unspecified) [GLYCOCHOLATE]: the LC retention time in data set [1] is 8 min; in data set [2] it was 9.22 min; in data set [3], 8.17 min; in data set [4], 7.96 min; in data set [5], 8.75 min; in data set [6], 8.42 min. Besides, the LC retention time in data set [7] was 9.2 min.
With `Nc1nc2nc[nH]c2c(=O)[nH]1` [GUANINE], the LC retention time in data set [1] was 0.663 min; in data set [2] it was 1.37 min; in data set [3] it was 0.757 min; in data set [4], 0.693 min; in data set [5], 1.09 min; in data set [6], 0.883 min. Further, the LC retention time in data set [7] was 1.36 min.
Take `O=C(O)CNC(=O)c1ccccc1` [HIPPURATE]: the LC retention time was 3.45 min in data set [1]; 5.12 min in data set [2]; 3.72 min in data set [3]; 3.42 min in data set [4]; 4.54 min in data set [5]; 4.09 min in data set [6]. Moreover, in data set [7], the LC retention time was 5.11 min.
On to `O=C(O)Cc1cc(O)ccc1O` [HOMOGENTISATE], for which the LC retention time in data set [1] is 1.22 min; in data set [2] it was 2.38 min; in data set [3] it was 1.35 min; in data set [4] it was 1.16 min; in data set [5] it was 1.92 min; in data set [6], 1.64 min. Moreover, in data set [7], the LC retention time was 2.48 min.
For the molecule `COc1cc(CC(=O)O)ccc1O` [HOMOVANILLATE], the LC retention time was 3.96 min in data set [1]; 5.43 min in data set [2]; 4.18 min in data set [3]; 3.93 min in data set [4]; 4.9 min in data set [5]; 4.5 min in data set [6]. In addition, in data set [7], the LC retention time is 5.42 min.
For `O=C(O)C(O)Cc1ccc(O)cc1` (stereo unspecified) [HYDROXYPHENYLLACTATE], the LC retention time is 3.96 min in data set [1]; 5.43 min in data set [2]; 4.18 min in data set [3]; 3.93 min in data set [4]; 4.9 min in data set [5]; 4.5 min in data set [6]. Moreover, the LC retention time in data set [7] was 5.42 min.
In the case of `NC(=O)Cc1c[nH]c2ccccc12` [INDOLE-3-ACETAMIDE], the LC retention time in data set [1] is 4.27 min; in data set [2], 5.84 min; in data set [3], 4.51 min; in data set [4] it was 4.23 min; in data set [5], 5.28 min; in data set [6], 4.85 min. Besides, in data set [7], the LC retention time is 5.83 min.
As to `OCCc1c[nH]c2ccccc12` [INDOLE-3-ETHANOL], the LC retention time in data set [1] was 5.61 min; in data set [2], 7.27 min; in data set [3], 5.95 min; in data set [4], 4.78 min; in data set [5] it was 6.66 min; in data set [6], 6.22 min. Further, the LC retention time in data set [7] was 7.25 min.
Turning to `O=C(O)C(=O)Cc1c[nH]c2ccccc12` [INDOLE-3-PYRUVATE], the LC retention time in data set [1] is 5.52 min; in data set [2], 7.11 min; in data set [3], 5.84 min; in data set [4], 5.58 min; in data set [5] it was 6.47 min; in data set [6] it was 6.08 min. In addition, the LC retention time in data set [7] was 7 min.
Turning to `O=CCc1c[nH]c2ccccc12` [INDOLEACETALDEHYDE], the LC retention time was 2.15 min in data set [1]; 4.21 min in data set [2]; 2.45 min in data set [3]; 2.17 min in data set [4]; 4.45 min in data set [5]; 4.07 min in data set [6]. In data set [7], the LC retention time was 4.97 min.
For the molecule `O=c1[nH]cnc2c1ncn2C1OC(CO)C(O)C1O` (stereo unspecified) [INOSINE], the LC retention time in data set [1] was 0.703 min; in data set [2] it was 1.37 min; in data set [3] it was 0.76 min; in data set [4], 0.663 min; in data set [5] it was 1.12 min; in data set [6] it was 0.943 min. In addition, the LC retention time in data set [7] was 1.39 min.
Regarding `CCC(C)C(N)C(=O)O` (stereo unspecified) [ISOLEUCINE], the LC retention time in data set [1] was 0.697 min; in data set [2], 1.43 min; in data set [3], 0.793 min; in data set [4], 0.717 min; in data set [5], 1.14 min; in data set [6], 0.93 min. The LC retention time in data set [7] was 1.45 min.
`O=C(O)c1cc(=O)c2ccccc2[nH]1` [KYNURENATE]: the LC retention time in data set [1] was 2.97 min; in data set [2], 4.53 min; in data set [3], 3.24 min; in data set [4] it was 2.93 min; in data set [5], 4 min; in data set [6], 3.64 min. In addition, the LC retention time in data set [7] was 4.52 min.
Regarding `NC(=O)[C@@H](N)Cc1c[nH]c2ccccc12` [L-TRYPTOPHANAMIDE], the LC retention time is 1.56 min in data set [1]; 2.97 min in data set [2]; 1.78 min in data set [3]; 1.53 min in data set [4]; 2.41 min in data set [5]; 2.02 min in data set [6]. Besides, in data set [7], the LC retention time was 3.02 min.
Take `CCCCCCCCCCCC(=O)O` [LAURATE]: the LC retention time in data set [1] is 12.6 min; in data set [2], 14.7 min; in data set [3] it was 12.9 min; in data set [4], 12.5 min; in data set [5], 13.9 min; in data set [6], 13.3 min. In addition, the LC retention time in data set [7] was 14.7 min.
Turning to `CCCCCCCCCCCC(=O)OC(CC(=O)[O-])C[N+](C)(C)C` (stereo unspecified) [LAUROYLCARNITINE], the LC retention time in data set [1] is 9.29 min; in data set [2], 10.7 min; in data set [3], 9.5 min; in data set [4] it was 9.25 min; in data set [5], 10.2 min; in data set [6], 9.71 min. The LC retention time in data set [7] is 10.8 min.
In the case of `CC(C)CC(N)C(=O)O` (stereo unspecified) [LEUCINE], the LC retention time in data set [1] was 0.743 min; in data set [2] it was 1.55 min; in data set [3] it was 0.873 min; in data set [4], 0.727 min; in data set [5] it was 1.22 min; in data set [6], 0.98 min. The LC retention time in data set [7] is 1.56 min.
On to `NC(Cc1cc(I)c(Oc2ccc(O)c(I)c2)c(I)c1)C(=O)O` (stereo unspecified) [LIOTHYRONINE], for which the LC retention time is 7.03 min in data set [1]; 8.2 min in data set [2]; 7.2 min in data set [3]; 7 min in data set [4]; 7.75 min in data set [5]; 7.45 min in data set [6]. Also, in data set [7], the LC retention time is 8.19 min.
Turning to `CC(CCC(=O)O)C1CCC2C3CCC4CC(O)CCC4(C)C3CCC12C` (stereo unspecified) [LITHOCHOLATE], the LC retention time was 12.4 min in data set [1]; 14.4 min in data set [2]; 12.7 min in data set [3]; 12.4 min in data set [4]; 13.7 min in data set [5]; 13.1 min in data set [6]. Further, in data set [7], the LC retention time was 14.4 min.
Take `CC(CCC(=O)NCCS(=O)(=O)O)C1CCC2C3CCC4CC(O)CCC4(C)C3CCC12C` (stereo unspecified) [LITHOCHOLYLTAURINE]: the LC retention time in data set [1] was 9.6 min; in data set [2] it was 11.1 min; in data set [3], 9.86 min; in data set [4], 9.62 min; in data set [5], 10.5 min; in data set [6] it was 10.2 min. The LC retention time in data set [7] is 11 min.
As to `Cc1cc2nc3[nH]c(=O)[nH]c(=O)c3nc2cc1C` [LUMICHROME], the LC retention time was 5.54 min in data set [1]; 6.93 min in data set [2]; 5.74 min in data set [3]; 5.5 min in data set [4]; 6.4 min in data set [5]; 6.03 min in data set [6]. Moreover, the LC retention time in data set [7] is 6.91 min.
